Assay results taken from US4112097A, “Antihypertensive agents” (Abbott Laboratories, priority 1977, dated 1978).
Where a name gives a salt, the structure may show the parent alone. Read-outs that look alike come from different tables or passages of the source.

Tests used:
[1] = system: spontaneously hypertensive (SH) rats; assay: Antihypertensive effect (blood pressure and heart rate) in spontaneously hypertensive rats; assay type: in vivo, rat; conditions: for Percent Change BP (blood pressure) / Percent Change HR (heart rate): N=4, mean
Experimental: The screening is conducted as follows:
Male spontaneously hypertensive (SH) rats are trained to be restrained in a wire mesh cylinder in a warming box, at least two training cycles being conducted before testing. The rats are warmed for about 1/2 hour period to blood pressure measurement, the warming box being maintained at a constant temperature of 36° C.
An occluding cuff attached to the programed sphymomanometer is placed near the base of the tail of each rat and the pressure in the cuff is increased automatically from 0 to 250 milimeters of mercury (mm Hg) at a rate of 10 mm Hg per second. The total time for each cycle of inflation and deflation of the cuff is 50 seconds and the interval between cycles is one minute.
A photocell is placed distal to the cuff to record the pulses due to forward motion of blood flow with each heart beat. As the pressure in the cuff increases, the pulse disappears completely at a point where cuff pressure equals or exceeds the arterial blood pressure and it reappears during deflation at approximately the same pressure. Five interference free signals for deflation are recorded for each rat. Rats with a blood pressure of 180 mm Hg or more during the control period are used in the study. Blood pressure and heart rate readings are recorded on a model VII Grass polygraph at intervals of 1, 3, 5 and 24 hours after administration of the drug.

physchem = conditions: water
Experimental: The water in the filtrate was removed in vacuo and the residue weighed and found to be 16.7 mg.

mice (male and female) = assay: Acute intravenous toxicity in mice; assay type: in vivo, mouse; conditions: mice, administered within twenty minutes following preparation
[2] = Acute intravenous toxicity in mice; assay type: in vivo, mouse; conditions: mouse, in vivo, iv, mice male and female, read-out: LD50 (95% Confidence Limits)
[3] = cited from earlier work
[4] = background statement on prazosin; cited from earlier work
[5] = intraperitoneal 0.3 mg/kg, 1 hour
[6] = intraperitoneal 0.3 mg/kg, 3 hours
[7] = intraperitoneal 0.3 mg/kg, 5 hours
[8] = intraperitoneal 0.3 mg/kg, 24 hours
[9] = intraperitoneal 1 mg/kg, 1 hour
[10] = intraperitoneal 1 mg/kg, 3 hours
[11] = intraperitoneal 1 mg/kg, 5 hours
[12] = intraperitoneal 1 mg/kg, 24 hours
[13] = intraperitoneal 3 mg/kg, 1 hour
[14] = intraperitoneal 3 mg/kg, 3 hours
[15] = intraperitoneal 3 mg/kg, 5 hours
[16] = intraperitoneal 3 mg/kg, 24 hours
[17] = intraperitoneal 10 mg/kg, 1 hour
[18] = intraperitoneal 10 mg/kg, 3 hours
[19] = intraperitoneal 10 mg/kg, 5 hours
[20] = intraperitoneal 10 mg/kg, 24 hours
[21] = intraperitoneal 30 mg/kg, 1 hour
[22] = intraperitoneal 30 mg/kg, 3 hours
[23] = intraperitoneal 30 mg/kg, 5 hours
[24] = intraperitoneal 30 mg/kg, 24 hours

COc1cc2nc(N3CCN(C(=O)C4CCCO4)CC3)nc(N)c2cc1OC (stereo not shown) [2[4-(Tetrahydro-2-Furoyl)Piperazinyl]-4-Amino-6,7-Dimethoxyquinazoline Hydrochloride]
duration of the effect (decrease in blood pressure) ([1]; intraperitoneal 30 mg./kg.): greater than 24 hours
fall in blood pressure ([1]; oral, 3 and 10 mg./kg., up to approximately): ≤ 40%
solubility (physchem): 590 mg/mL
toxicity in comparison to the compound of Formula I (mice (male and female)): significantly lower toxicity than the compound of Formula I
LD50 ([2]; injected 24 hours after formulation (B)): 253 mg/kg
LD50 ([2]; injected immediately after formulation (A)): 259 mg/kg

COc1cc2nc(N3CCN(C(=O)c4ccco4)CC3)nc(N)c2cc1OC [Formula I, 2-[4-(2-furoyl)-1-piperazine-1-yl]-4-amino-6,7-dimethoxyquinazoline, reference compound]
fall in blood pressure in words ([3]; The Lancet, May 10, 1975): profound fall in blood pressure
toxicity in words ([3]; The Lancet, May 10, 1975): significant toxicity
collapse with loss of consciousness ([3]; following use of the drug, The Lancet and British Medical Journal, June 28, 1975): Sudden collapse with loss of consciousness for periods ranging from a few minutes to one hour
Percent Change BP (blood pressure) [1, 5]: -20.8%
Percent Change HR (heart rate) [1, 5]: -2.5%
Percent Change BP (blood pressure) [1, 6]: -18.3%
Percent Change HR (heart rate) [1, 6]: -0.5%
Percent Change BP (blood pressure) [1, 7]: -13.8%
Percent Change HR (heart rate) [1, 7]: -12.0%
Percent Change BP (blood pressure) [1, 8]: -4.3%
Percent Change HR (heart rate) [1, 8]: -5.0%
Percent Change BP (blood pressure) [1, 9]: -20.0%
Percent Change HR (heart rate) [1, 9]: 2.8%
Percent Change BP (blood pressure) [1, 10]: -15.3%
Percent Change HR (heart rate) [1, 10]: 1.8%
Percent Change BP (blood pressure) [1, 11]: -13.5%
Percent Change HR (heart rate) [1, 11]: 10.5%
Percent Change BP (blood pressure) [1, 12]: 3.5%
Percent Change HR (heart rate) [1, 12]: 12.8%
Percent Change BP (blood pressure) [1, 13]: -45.0%
Percent Change HR (heart rate) [1, 13]: 0.3%
Percent Change BP (blood pressure) [1, 14]: -31.5%
Percent Change HR (heart rate) [1, 14]: -6.5%
Percent Change BP (blood pressure) [1, 15]: -26.3%
Percent Change HR (heart rate) [1, 15]: -17.0%
Percent Change BP (blood pressure) [1, 16]: -2.3%
Percent Change HR (heart rate) [1, 16]: -4.0%
Percent Change BP (blood pressure) [1, 17]: -41.0%
Percent Change HR (heart rate) [1, 17]: 5.8%
Percent Change BP (blood pressure) [1, 18]: -34.0%
Percent Change HR (heart rate) [1, 18]: 14.8%
Percent Change BP (blood pressure) [1, 19]: -27.0%
Percent Change HR (heart rate) [1, 19]: 7.3%
Percent Change BP (blood pressure) [1, 20]: -13.0%
Percent Change HR (heart rate) [1, 20]: -7.5%
Percent Change BP (blood pressure) [1, 21]: -43.3%
Percent Change HR (heart rate) [1, 21]: -1.8%
Percent Change BP (blood pressure) [1, 22]: -48.5%
Percent Change HR (heart rate) [1, 22]: 4.8%
Percent Change BP (blood pressure) [1, 23]: -55.5%
Percent Change HR (heart rate) [1, 23]: 3.5%
Percent Change BP (blood pressure) [1, 24]: -24.5%
Percent Change HR (heart rate) [1, 24]: -6.5%
Percent Change BP (blood pressure) ([1]; oral 0.03 mg/kg, 1 hour): -4.5%
Percent Change HR (heart rate) ([1]; oral 0.03 mg/kg, 1 hour): 4.8%
Percent Change BP (blood pressure) ([1]; oral 0.03 mg/kg, 3 hours): -0.8%
Percent Change HR (heart rate) ([1]; oral 0.03 mg/kg, 3 hours): -9.3%
Percent Change BP (blood pressure) ([1]; oral 0.03 mg/kg, 5 hours): -11.5%
Percent Change HR (heart rate) ([1]; oral 0.03 mg/kg, 5 hours): -9.8%
Percent Change BP (blood pressure) ([1]; oral 0.03 mg/kg, 24 hours): 1.3%
Percent Change HR (heart rate) ([1]; oral 0.03 mg/kg, 24 hours): -2.0%
Percent Change BP (blood pressure) ([1]; oral 0.1 mg/kg, 1 hour): -9.8%
Percent Change HR (heart rate) ([1]; oral 0.1 mg/kg, 1 hour): 13.5%
Percent Change BP (blood pressure) ([1]; oral 0.1 mg/kg, 3 hours): -17.5%
Percent Change HR (heart rate) ([1]; oral 0.1 mg/kg, 3 hours): 18.3%
Percent Change BP (blood pressure) ([1]; oral 0.1 mg/kg, 5 hours): -22.8%
Percent Change HR (heart rate) ([1]; oral 0.1 mg/kg, 5 hours): 1.5%
Percent Change BP (blood pressure) ([1]; oral 0.1 mg/kg, 24 hours): -1.3%
Percent Change HR (heart rate) ([1]; oral 0.1 mg/kg, 24 hours): 3.5%
Percent Change BP (blood pressure) ([1]; oral 0.3 mg/kg, 1 hour): -32.8%
Percent Change HR (heart rate) ([1]; oral 0.3 mg/kg, 1 hour): -5.5%
Percent Change BP (blood pressure) ([1]; oral 0.3 mg/kg, 3 hours): -33.8%
Percent Change HR (heart rate) ([1]; oral 0.3 mg/kg, 3 hours): -5.0%
Percent Change BP (blood pressure) ([1]; oral 0.3 mg/kg, 5 hours): -30.0%
Percent Change HR (heart rate) ([1]; oral 0.3 mg/kg, 5 hours): -13.8%
Percent Change BP (blood pressure) ([1]; oral 0.3 mg/kg, 24 hours): -12.3%
Percent Change HR (heart rate) ([1]; oral 0.3 mg/kg, 24 hours): 3.0%
Percent Change BP (blood pressure) ([1]; oral 1 mg/kg, 1 hour): -31.8%
Percent Change HR (heart rate) ([1]; oral 1 mg/kg, 1 hour): 2.0%
Percent Change BP (blood pressure) ([1]; oral 1 mg/kg, 3 hours): -17.8%
Percent Change HR (heart rate) ([1]; oral 1 mg/kg, 3 hours): 6.8%
Percent Change BP (blood pressure) ([1]; oral 1 mg/kg, 5 hours): -19.5%
Percent Change HR (heart rate) ([1]; oral 1 mg/kg, 5 hours): -1.0%
Percent Change BP (blood pressure) ([1]; oral 1 mg/kg, 24 hours): -2.3%
Percent Change HR (heart rate) ([1]; oral 1 mg/kg, 24 hours): 10.0%
Percent Change BP (blood pressure) ([1]; oral 3 mg/kg, 1 hour): -19.3%
Percent Change HR (heart rate) ([1]; oral 3 mg/kg, 1 hour): 0.5%
Percent Change BP (blood pressure) ([1]; oral 3 mg/kg, 3 hours): -19.8%
Percent Change HR (heart rate) ([1]; oral 3 mg/kg, 3 hours): 11.5%
Percent Change BP (blood pressure) ([1]; oral 3 mg/kg, 5 hours): -20.5%
Percent Change HR (heart rate) ([1]; oral 3 mg/kg, 5 hours): 1.5%
Percent Change BP (blood pressure) ([1]; oral 3 mg/kg, 24 hours): 5.3%
Percent Change HR (heart rate) ([1]; oral 3 mg/kg, 24 hours): 6.0%
Percent Change BP (blood pressure) ([1]; oral 10 mg/kg, 1 hour): -23.8%
Percent Change HR (heart rate) ([1]; oral 10 mg/kg, 1 hour): 3.0%
Percent Change BP (blood pressure) ([1]; oral 10 mg/kg, 3 hours): -22.3%
Percent Change HR (heart rate) ([1]; oral 10 mg/kg, 3 hours): 12.3%
Percent Change BP (blood pressure) ([1]; oral 10 mg/kg, 5 hours): -22.0%
Percent Change HR (heart rate) ([1]; oral 10 mg/kg, 5 hours): -0.8%
Percent Change BP (blood pressure) ([1]; oral 10 mg/kg, 24 hours): -2.3%
Percent Change HR (heart rate) ([1]; oral 10 mg/kg, 24 hours): 23.3%
Percent Change BP (blood pressure) ([1]; oral 30 mg/kg, 1 hour): -34.0%
Percent Change HR (heart rate) ([1]; oral 30 mg/kg, 1 hour): -3.8%
Percent Change BP (blood pressure) ([1]; oral 30 mg/kg, 3 hours): -31.3%
Percent Change HR (heart rate) ([1]; oral 30 mg/kg, 3 hours): -11.5%
Percent Change BP (blood pressure) ([1]; oral 30 mg/kg, 5 hours): -29.3%
Percent Change HR (heart rate) ([1]; oral 30 mg/kg, 5 hours): -14.8%
Percent Change BP (blood pressure) ([1]; oral 30 mg/kg, 24 hours): -14.5%
Percent Change HR (heart rate) ([1]; oral 30 mg/kg, 24 hours): -1.5%
solubility in words [4]: very low solubility
